Assay results from patent US20030068615A1, “Polypeptides that bind HIV gp120 and related nucleic acids, antibodies, compositions, and methods of use” (priority 1999, published 2003).
Read-outs that look alike come from different tables or passages of the source.

Molecular target: HIV-1LAI envelope gp120 (Human immunodeficiency virus type 1 group M subtype B, UniProt P03377)
Type: binding
Conditions: for Counts per 20′ Average-background: CCR5 18-mer scan, radiolabeled HIV-1LAI gp120; for number of radioactive decays (counts) counted: human CD4 21-mer scan, empty control 2075
[1] = Panel D, 9-mers and 12-mers of CD4, empty control […]
[2] = STRL33 18-mer scan, background subtracted, first of two count columns
[3] = STRL33 18-mer scan, background subtracted, second of two count columns
[4] = Panel B, 15-mers and 18-mers of CD4, empty control 575
[5] = CXCR4 18-mer scan, background subtracted, empty control 0
[6] = CXCR4 18-mer scan, empty control 412
[7] = Panel E, 9-mers and 12-mers of CD4, empty control 571
[8] = Panel C, 15-mers and 18-mers of CD4, empty control 556

LLQGQSLTLTLE
COUNTS of radiolabeled gp120 retained [1]: 1320 counts

LLRCRNEKKRHRAVRLIF
Counts per 20′ Average-background (background subtracted): 102 counts per 20′

LLSDSGQVLLESNIKVLPTWS [human CD4 371-391]
number of radioactive decays (counts) counted: 2375 counts

LLTIDRYLAVVHAVFALK
Counts per 20′ Average-background (background subtracted): 31 counts per 20′

LLTQMPFNLMKFIRSTHW
radioactive counts recorded in twenty minutes [2]: 2513.5 counts | radioactive counts recorded in twenty minutes [3]: 3154.5 counts

LLVFGLTAN
COUNTS of radiolabeled gp120 retained [1]: 576 counts

LLVFGLTANSDT
COUNTS of radiolabeled gp120 retained [1]: 533 counts

LLVFGLTANSDTHLL
COUNTS of radiolabeled gp120 retained [4]: 599 counts

LLVFGLTANSDTHLLQGQ
COUNTS of radiolabeled gp120 retained [4]: 568 counts

LMKFIRSTHWEYYAMTSF [STRL33 segment 249-266]
radioactive counts recorded in twenty minutes [2]: 934.5 counts | radioactive counts recorded in twenty minutes [3]: 949.5 counts

LNPEAGMWQCLLSDSGQVLLE [human CD4 361-381]
number of radioactive decays (counts) counted: 6316 counts

LNPILYAFLGAKFKTSAQ [CXCR4 segment 297-314]
radioactive counts recorded in twenty minutes [5]: 274 counts | radioactive counts recorded in twenty minutes [6]: 686 counts

LNTFQEFFGLNNCSSSNR [CCR5 segment 257-]
Counts per 20′ Average-background (background subtracted): 293 counts per 20′

LPGIIFTRSQKEGLHYTC
Counts per 20′ Average-background (background subtracted): 118 counts per 20′

LPLADLVFVCTLPFWAYA [STRL33 segment 73-90]
radioactive counts recorded in twenty minutes [2]: 557.5 counts | radioactive counts recorded in twenty minutes [3]: 960.5 counts

LPLLVMVICYSGILKTLL [CCR5 segment 205-]
Counts per 20′ Average-background (background subtracted): 68 counts per 20′

LPPLYSLVFIFGFVGNML [CCR5 segment 33-50]
Counts per 20′ Average-background (background subtracted): 705 counts per 20′

LPTIYSIIFLTGIVGNGL [CXCR4 segment 41-58]
radioactive counts recorded in twenty minutes [5]: 118 counts | radioactive counts recorded in twenty minutes [6]: 530 counts

LPYLGVSHQWKSSEDNSK
radioactive counts recorded in twenty minutes [2]: 111.5 counts | radioactive counts recorded in twenty minutes [3]: 122.5 counts

LPYYIGISIDSFILLEII
radioactive counts recorded in twenty minutes [5]: 439 counts | radioactive counts recorded in twenty minutes [6]: 851 counts

LQGQSLTLT
COUNTS of radiolabeled gp120 retained [1]: 501 counts

LQNQKKVEF
COUNTS of radiolabeled gp120 retained [7]: 565 counts

LQNQKKVEFKID
COUNTS of radiolabeled gp120 retained [7]: 508 counts

LQNQKKVEFKIDIVV
COUNTS of radiolabeled gp120 retained [8]: 644 counts

LQNQKKVEFKIDIVVLAF
COUNTS of radiolabeled gp120 retained [8]: 938 counts

LRSMTDKYRLHLSVADLL [CXCR4 segment 69-86]
radioactive counts recorded in twenty minutes [5]: 160 counts | radioactive counts recorded in twenty minutes [6]: 572 counts

LSKGKRGGHSSVSTESES
radioactive counts recorded in twenty minutes [5]: 185 counts | radioactive counts recorded in twenty minutes [6]: 597 counts

LTANSDTHL
COUNTS of radiolabeled gp120 retained [1]: 596 counts

LTANSDTHLLQG
COUNTS of radiolabeled gp120 retained [1]: 534 counts

LTANSDTHLLQGQSL
COUNTS of radiolabeled gp120 retained [4]: 634 counts

LTANSDTHLLQGQSLTLT
COUNTS of radiolabeled gp120 retained [4]: 528 counts

LTCEVWGPTSPKLMLSLKLEN
number of radioactive decays (counts) counted: 2412 counts

LTDVFLVNLPLADLVFVC [STRL33 segment 65-82]
radioactive counts recorded in twenty minutes [2]: 233.5 counts | radioactive counts recorded in twenty minutes [3]: 336.5 counts

LTGSGELWW
COUNTS of radiolabeled gp120 retained [7]: 550 counts

LTMIVCYSVIIKTLLHAG [STRL33 segment 205-222]
radioactive counts recorded in twenty minutes [2]: 2787.5 counts | radioactive counts recorded in twenty minutes [3]: 2654.5 counts

LTSVSRGSSLKILSKGKR
radioactive counts recorded in twenty minutes [5]: 183 counts | radioactive counts recorded in twenty minutes [6]: 595 counts

LTVPFWAHYAAAQWDFGN [CCR5 segment 81-98]
Counts per 20′ Average-background (background subtracted): 306 counts per 20′

LVFFQKHIAKRFCKCCSI
Counts per 20′ Average-background (background subtracted): 76 counts per 20′

LVFGLTANS
COUNTS of radiolabeled gp120 retained [1]: 522 counts

LVFGLTANSDTH
COUNTS of radiolabeled gp120 retained [1]: 586 counts

LVFGLTANSDTHLLQ
COUNTS of radiolabeled gp120 retained [4]: 609 counts

LVFGLTANSDTHLLQGQS
COUNTS of radiolabeled gp120 retained [4]: 564 counts

LVISIFYHKLQSLTDVFL [STRL33 segment 53-70]
radioactive counts recorded in twenty minutes [2]: 1620.5 counts | radioactive counts recorded in twenty minutes [3]: 1780.5 counts

LVMGYQKKLRSMTDKYRL [CXCR4 segment 61-78]
radioactive counts recorded in twenty minutes [5]: 105 counts | radioactive counts recorded in twenty minutes [6]: 517 counts

LVSLPQIIYGNVFNLDKL
radioactive counts recorded in twenty minutes [2]: 91.5 counts | radioactive counts recorded in twenty minutes [3]: −15.5 counts
